# Results from patent publication US12545695B2, “Compounds for inhibiting neovascularization factors and use thereof” (UNIST (ULSAN NATIONAL INSTITUTE OF SCIENCE AND TECHNOLOGY), priority 2019, dated 2026).
# Legend:
# TRAP-1 = experiment: ATPase activity assay (PiColorLock Gold Phosphate Detection Kit); assay type: biochemical; settings: TRAP1 0.5 μM, 0.2 mM ATP, inhibitor 0.520 μM preincubated 30 minutes (FIG. 16)
# Description: ATPase activity was measured by measuring the release of inorganic phosphates through the PiColorLock Gold Phosphate Detection Kit (Innova Biosciences) according to the manufacturer's manual. TRAP1 (0.5 μM) was cultured with 0.2 mM ATP in 100 mM Tris, 20 mM KCl, and 6 mM MgCl2 under the conditions of pH 7.0 and 37° C. for 3 hours. Thereafter, the PiColorLock Gold reagent and an accelerator (100:1) were added to a 100 μL ATP hydrolyzate sample. After culturing at 25° C. for 5 minutes, the change in color was stopped by adding 10 μL of a stop solution thereto, and the absorbance at 620 nm was measured by SYNERGY NEO microplate reader (BioTek Instruments).
# For inhibitory ability analysis, TRAP1 was cultured with a predetermined concentration (0.520 μM) of inhibitor for 30 minutes and then stirred with ATP. Absorbance values were normalized to a DMSO control and data was expressed as % ATPase activity.
# For inhibitory ability analysis, TRAP-1 was cultured with a predetermined concentration (0.520 μM) of inhibitor for 30 minutes and then stirred with ATP. Absorbance values were normalized to a DMSO control and data was expressed as % ATPase activity.
# HIF-1α = experiment: Western blot of HIF-1α in Muller cells (MIO-M1) under hypoxia; assay type: cell-based; settings: MIO-M1, hypoxic chamber 1% O2 (FIG. 8)
# Description: (§1) Muller cells (MIO-M1) were cultured at 37° C. and 5% CO2, and DMEM-low glucose (Sigma) including 10% fetal bovine serum and 1% penicillin & streptomycin was used as the medium. A hypoxic chamber was maintained at 37° C., 5% CO2 and 1% O2.
# Muller cells (MIO-M1) were seeded in the number of 4×10^5 on a 60-millimeter plate and cultured in 3 ml of medium for 24 hours. The next day, the cells were treated with SMX, a mitochondrial heat shock protein 90 (TRAP1) inhibitor according to the concentrations shown in the drawing and cultured in a hypoxic chamber for 6 hours. Whole cell lysates were made from the cultured cells, electrophoresed, transferred to a PVDF membrane, and then treated with a primary antibody at 4° C. for 18 hours. The next day, the whole cell lysates were treated with a secondary antibody for 1 hour and protein expression was analyzed using a western blotting detection reagent.
# as §1, with “O2. […] The next day, the whole cell lysates were treated with a secondary antibody for 1 hour and protein expression was analyzed using a western blotting detection reagent.” for “O2.”
smiles,measurement,setting,value
COC1=C(OC)C(=O)C(CCCCCCCCCC[P+](c2ccccc2)(c2ccccc2)c2ccccc2)=C(C)C1=O [SMx],ATPase activity of TRAP-1,TRAP-1,significantly increased according to the concentration
same,expression of HIF-1α,HIF-1α,suppressed
